Reference: patent US20230077983A1, “METHODS OF TREATING AND PREVENTING ENGRAFTMENT ARRHYTHMIAS” (UNIVERSITY OF WASHINGTON, priority 2020, published 2023)
Read-outs that look alike come from different tables or passages of the source. Marks after values point to notes of the source that are not given here.

How the values were obtained:
[1] = Amiodarone drug monitoring by liquid chromatography-mass spectrometry after discontinuation of oral therapy; assay type: in vivo, pigs; details: within 1 week of discontinuation of chronic oral amiodarone; pig
Protocol: Amiodarone levels were measured in plasma by a liquid chromatography-mass spectrometry assay. Chronic oral amiodarone in six pigs was discontinued after achieving electrical maturation and stabilization of engraftment arrythmia. Serum concentrations of amiodarone were assayed weekly, including 3-4 weeks after discontinuation.
A novel liquid chromatography—mass spectrometry assay was established for amiodarone to monitor steady state serum levels in the porcine model and guide oral dosing to ensure efficacy and avoid dose-related toxicity. A target serum level of 1.5-4.0 μg/ml was extrapolated from prior human pharmacokinetic studies (16,17). Elimination kinetics after discontinuation of oral amiodarone therapy were also studied by obtaining weekly trough concentrations in 6 pigs (subjects 6, 7, 8, 13, 14, 16) (FIG. 18).

[2] = tested on: engraftment arrhythmia (EA); details: for Result: HR effect / Result: cardioversion / Result: response on EA burden: Table 1, swine; for Effect: HR effect / Effect: cardioversion / Effect: response on EA burden: Table 2, Phase 1; for effect on heart rate (agent alone) / effect on rhythm: cardioversion / sinus rhythm / arrhythmia burden (agent alone): running text and figure legend, pigs in EA
Protocol: A number of anti-arrhythmic therapies were tested to determine their efficacy in treating and preventing engraftment arrhythmias.
The objective of this study was to identify a pharmacological regimen to attenuate arrhythmias following cardiac remuscularization therapy. This study was designed in two phases: the first, to observe the natural history of EA and screen various antiarrhythmic agents for efficacy and the second, test for efficacy (FIG. 16). All subjects were 30-40 kg castrated male Yucatan minipigs between 6-13 months of age (S&S Farms). In Phase 1, nine subjects underwent cardiac remuscularization therapy with 500×10^6 hESC-CM delivered by direct surgical transepicardial injections or later, by percutaneous transendocardial injections. The first four subjects (one non-infarcted and three infarcted) were followed to learn the natural history of EA and establish clinical endpoints and parameters for the Phase 2 drug trial. The subsequent five subjects underwent systematic dosing with antiarrhythmic agents with continuous electrocardiography (ECG) monitoring to determine effect on rhythm and rate (Table 2).
In addition, the funny current/HCN4 channel antagonist, ivabradine, was tested (Tables 1 and 2). This series was not meant to be definitive but rather to rapidly identify candidate agents. Animals were brought into the laboratory while in EA, anesthetized, and the effects of short-term intravenous infusion of anti-arrhythmic agents were studied.
Subjects were administered multiple trials antiarrhythmics and observed for acute response by continuous ECG monitoring. Intravenous agents were delivered as a bolus dose over 2 minutes. Oral agents were administrated by direct observation in a minimum of apples, apple sauce or pumpkin puree with daily feeding and dosed daily for dose escalation. A washout period of at least three days was provided between agents. Amiodarone was administered as the last agent for testing given concern for prolonged half-life and elimination kinetics. All agents were tested in at least two subjects.

[3] = tested on: engraftment arrhythmia (EA); experiment: Antiarrhythmic trial in non-human primate engraftment model; assay type: in vivo; details: Table 1, concentration not given

| SMILES | Result: HR effect [2] | Effect: HR effect ([2]; pig) | Result: response on EA burden [2] | effect in the antiarrhythmic screen (heart rate or arrhythmia burden) [2] | Effect: response on EA burden ([2]; pig) | further results |
| --- | --- | --- | --- | --- | --- | --- |
| CCCCc1oc2ccccc2c1C(=O)c1cc(I)c(OCCN(CC)CC)c(I)c1 [Amiodarone] | Modest HR effect | Modest HR effect | – | – | – | Average serum amiodarone [1]: 0.42 ± 0.12 µg/mL; Result: cardioversion [2]: frequent; Effect: cardioversion ([2]; pig): frequent; effect on heart rate (agent alone) [2]: moderate effect on reducing heart rate; effect on rhythm: cardioversion / sinus rhythm / arrhythmia burden (agent alone) [2]: effective as an intravenous bolus to cardiovert |
| O=C1CN(/N=C/c2ccc(-c3ccc([N+](=O)[O-])cc3)o2)C(O)=N1 [Dantrolene] | No response on HR or EA burden | – | No response on HR or EA burden | – | – | – |
| O=C(NCC1CCCCN1)c1cc(OCC(F)(F)F)ccc1OCC(F)(F)F (centres unmarked) [Flecainide] | No response on HR or EA burden | No response on HR or EA burden | No response on HR or EA burden | no significant effect | No response on HR or EA burden | – |
| COc1cc2c(cc1OC)CC(=O)N(CCCN(C)C[C@H]1Cc3cc(OC)c(OC)cc31)CC2 [Ivabradine] | Robust dose-dependent HR | Robust dose-dependent HR effect (PO | – | – | only)**, no response on EA burden | Effect: adverse events (footnotes * and **) ([2]; pig, in vivo): **Severe bradycardia; effect on heart rate (agent alone) ([2]; listed as ivabradine): robust dose-dependent effects on heart rate; effect on rhythm: cardioversion / sinus rhythm / arrhythmia burden (agent alone) ([2]; listed as ivabradine): did not restore sinus rhythm |
| CCN(CC)CC(=O)Nc1c(C)cccc1C [Lidocaine] | Modest HR effect | Modest HR effect | – | no significant effect | – | Result: cardioversion [2]: rare; Effect: cardioversion ([2]; pig): rare |
| COCCc1ccc(OCC(O)CNC(C)C)cc1 (centres unmarked) [Metoprolol] | Moderate HR effect (IV only) | Moderate HR effect (IV only) | no | no significant effect | no | – |
| CCCNCC(O)COc1ccccc1C(=O)CCc1ccccc1 (centres unmarked) [Propafenone] | – | – | – | – | – | Effect: adverse events (footnotes * and **) ([2]; pig, in vivo): *Severe nausea/emesis observed at therapeutic doses, limiting clinical utility; Result: adverse events (* remarks) ([2]; pig, in vivo): * Dose limited emesis |
| CC(C)NCC(O)c1ccc(NS(C)(=O)=O)cc1 (centres unmarked) [Sotalol] | No response on HR or EA burden | No response on HR or EA burden | No response on HR or EA burden | no significant effect | No response on HR or EA burden | – |
| COc1ccc(CCN(C)CCCC(C#N)(c2ccc(OC)c(OC)c2)C(C)C)cc1OC (centres unmarked) [Verapamil] | – | – | – | – | – | Result [3]: Sudden cardiac death |
